PMC11233931, “Remodeling tumor‐associated macrophage for anti‐cancer effects by rational design of irreversible inhibition of mitogen‐activated protein kinase‐activated protein kinase 2” (MedComm, 2024)

Tests used:
p38α-MK2 complex = test system: p38α-MK2 complex; parameters: method as in PMID 29549113; details: cited from earlier work
MK2 [1] = test system: MK2; parameters: method as in PMID 12147348, PMID 35691544; details: cited from earlier work
[2] = test system: p-Hsp27 (Ser82) and p-MK2 (T334) in THP-1 derived macrophages; experiment: Western blot of MK2 signaling in LPS-stimulated THP-1 derived macrophages; format: cell-based, human; details: 1 h preincubation, LPS 100 ng/mL 30 min
Procedure: (§1) FIGURE 4 Targeting cellular MK2 signaling with irreversible inhibition by compound 11. (A and B) RT‐PCR analysis of IL‐1β, TNF‐α, and IL‐6 expression in Lipopolysaccharides (LPS)‐stimulated THP‐1 (A) and RAW264.7 (B) Cells, with pre‐treatment of compound 11 for 3 h followed by LPS (3 h) stimulation. (C) The inhibitory effects of compound 11 on TNF‐α and IL‐6 production in LPS‐stimulated RAW264.7 macrophages for 24 h, measured by ELISA. (D and E) Compound 11, alongside CC‐99677 and PF‐3644022, suppressed MK2 pathway activation, validated through western blot analysis post‐LPS stimulation. Cells were preincubated with the specified compounds for 1 h prior to LPS stimulation (100 ng/mL, 30 min). (F) Distinguishes the mode of action between compound 11 and CC‐99677. The complex structure of a small molecule and MK2 (3R2Y) with the same parent nucleus as compound 11 is shown in cyans, and the complex structure of a small molecule and MK2 (3FYJ) with the same parent nucleus as CC‐99677 is shown in orange. (G–I) The effect of indicated inhibitor on Hsp27 phosphorylation following inhibitor washout. Cells were pretreated with indicated compounds for 1 h and then washed to remove free compound and incubated for a further indicated time before activation with LPS. In (A–C), LPS (100 ng/mL) served as the stimulation control, while untreated cells were the baseline control. The data represent as mean ± SD from triplicates, with statistical analysis conducted via one‐way analysis of variance (ANOVA) (^## p < 0.01, ^### p < 0.001 vs. stimulation control; ^***p < 0.001 vs. baseline control).
Next, the efficacy of compound 11 in cellular MK2 signaling inhibition was evaluated by examining both p‐MK2 and p‐Hsp27 at Ser82 levels, the latter being a direct downstream substrate of p‐MK2. […] We try to explore this interesting phenomenon by superimposing the complex crystal structure (3FYJ) that harboring the same skeleton as CC‐99677 (Figure 4F). […] In that way, CC‐99677 binding to MK2 kinase after pre‐incubation with cells and after LPS stimulation may cause the difference in the spatial conformation of MK2 kinase domain, which may make p38 cannot properly bind to MK2, resulting in a decrease in the phosphorylation of MK2.
After the treatment outlined in the figure legends, cells were lysed using 1× sodium dodecyl sulfate (SDS) solution. The lysates were then subjected to SDS‐polyacrylamide gel electrophoresis for separation, followed by transferring onto nitrocellulose membranes. […] Protein bands were detected using an enhanced chemiluminescence detection reagent (Thermo Fisher Scientific).

p-Hsp27 = experiment: Cellular washout assay, p-Hsp27 by western blot; format: cell-based; details: 1 h pretreatment, then LPS
Procedure: as §1
Furthermore, to validate the irreversible mechanism of action of compound 11 at the cellular level, we performed a cellular washout assay and assessed p‐Hsp27 levels. The established MK2 irreversible inhibitor CC‐99677 served as positive control, while the reversible ATP‐competitive inhibitor PF‐3644022 was used as negative control. […] In contrast, only 1 h after PF‐3644022 washout, p‐Hsp27 level was totally recovered (Figure 4I).
After the treatment outlined in the figure legends, cells were lysed using 1× sodium dodecyl sulfate (SDS) solution. The lysates were then subjected to SDS‐polyacrylamide gel electrophoresis for separation, followed by transferring onto nitrocellulose membranes. The membranes were incubated with primary antibodies specific to phospho‐MK2, phospho‐Hsp27, MK2, Hsp27, GAPDH, and β‐actin (Cell Signaling Technology), followed by horseradish peroxidase‐conjugated anti‐mouse or anti‐rabbit IgG secondary antibodies. Protein bands were detected using an enhanced chemiluminescence detection reagent (Thermo Fisher Scientific).

MK2 [3] = target: T1, MK2 (Homo sapiens, UniProt P49137); experiment: Kinase kinetic analysis of irreversible inhibition (Mobility Shift Assay, preincubation then 100-fold dilution); format: biochemical; details: preincubation at 100 times the IC50, monitored continuously
T1 sequence (P49137 whole entry): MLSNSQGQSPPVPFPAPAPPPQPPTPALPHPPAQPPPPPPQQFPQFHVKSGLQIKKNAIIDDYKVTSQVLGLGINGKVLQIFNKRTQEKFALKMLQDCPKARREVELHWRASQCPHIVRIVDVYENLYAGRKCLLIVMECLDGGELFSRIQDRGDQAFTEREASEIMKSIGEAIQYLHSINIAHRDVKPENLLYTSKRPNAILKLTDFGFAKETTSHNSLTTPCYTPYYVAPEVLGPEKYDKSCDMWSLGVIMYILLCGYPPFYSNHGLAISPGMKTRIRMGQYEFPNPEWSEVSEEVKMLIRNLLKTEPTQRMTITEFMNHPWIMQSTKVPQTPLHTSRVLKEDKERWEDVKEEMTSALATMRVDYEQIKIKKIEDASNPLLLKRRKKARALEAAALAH
From the text: To assess its role as an irreversible MK2 kinase inhibitor, we conducted a kinetic study on compound 11. The well‐known reversible ATP‐competitive MK2 inhibitor, PF‐3644022, served as a negative control. […] The kinase‐inhibitor mixture was subsequently diluted by a factor of 100 with a reaction buffer that included both substrate peptide and ATP. Under these circumstances, the activity of MK2 kinase was continuously monitored by assessing the phosphorylated substrate percentage. […] The enzyme activity curve almost overlapped with the curve of background group, which included only the substrate peptide without inhibitors and MK2 kinase.
In the kinase kinetic analysis to elucidate the irreversible inhibition of MK2 by compound 11, a Mobility Shift Assay was conducted. […] The EZ Reader (Caliper Life Sciences, MA) was then used to assess the kinase activity of the mixture, which was monitored continuously for 1 hour.

MK2 [4] = target: T1, MK2; experiment: MK2 kinase inhibition assay (ADP-Glo); format: biochemical; details: for IC50: mean ± SD of two independent tests
Procedure: To assess the impact of various compounds on MK2 kinase activity, we utilized the ADP‐Glo Assay Kit (Promega) following the manufacturer's instructions. Luminescence measurements were taken using a SpectraMax Paradigm reader. The inhibition percentage was calculated using the following formula: ((specific signalDMSO control − specific signal inhibitor)/(specific signalDMSO control)) × 100%. The IC50 values were determined employing dose–response curve fitting via Prism (Graph Pad).

IC50 (MK2 [4]) [nM]	Compound	further results
–	Cc1cnc(-c2ccnc(C(C)(C)O)n2)cc1-n1c(C)cc(OCc2ncc(F)cc2F)c(Cl)c1=O [ATI-450]	potency for the p38α-MK2 complex relative to p38α-PRAK or p38α-ATF2 (p38α-MK2 complex): over 700 fold
–	Nc1ncnc2c1ncn2[C@@H]1O[C@H](COP(=O)(O)OP(=O)(O)OP(=O)(O)O)[C@@H](O)[C@H]1O [ATP]	ATP binding affinity to MK2 (MK2 [1]): approximately 30 µM
–	CCOCc1cnc(Cl)nc1Oc1ccc2c(ccc3sc4c(c32)NC[C@@H](C)NC4=O)n1 [CC-99677, reference compound]	effect on MK2 phosphorylation at T334 site [2]: inhibited; time after inhibitor washout at which p-Hsp27 level recovered (p-Hsp27): 12 h
12.3 ± 1.3	Cc1ccc(-c2ccc3c(ccc4sc5c(c43)NC[C@@H](C)NC5=O)n2)cn1 [PF-3644022, reference compound]	effect on MK2 phosphorylation at T334 site [2]: inhibited; MK2 kinase activity after 30 min preincubation with inhibitor and 100-fold dilution (MK2 [3]): recovered gradually; time after inhibitor washout at which p-Hsp27 level recovered (p-Hsp27): 1 h
728	C=CC(=O)Nc1cccc(-c2cc(-c3cc4c([nH]3)CCNC4=O)ccn2)c1 [compound 2]	–
–	CCC(=O)Nc1cccc(-c2cc(-c3cc4c([nH]3)CCNC4=O)ccn2)c1 [compound 3]	inhibition at 1 µM (MK2 [4]; read-out: inhibition of MK2 at 1 μM, 1 μM, inhibitory rate of two independent tests): ~30%
452 ± 45.3	C=CC(=O)Nc1cc(OC)cc(-c2cc(-c3cc4c([nH]3)CCNC4=O)ccn2)c1 [compound 4]	–
36.9 ± 20.1	C=CC(=O)Nc1cc(-c2cc(-c3cc4c([nH]3)CCNC4=O)ccn2)ccc1OC [compound 5]	–
89.5 ± 15.3	C=CC(=O)Nc1cc(C)cc(-c2cc(-c3cc4c([nH]3)CCNC4=O)ccn2)c1 [compound 6]	–
285 ± 97.5	C=CC(=O)Nc1cc(-c2cc(-c3cc4c([nH]3)CCNC4=O)ccn2)ccc1C [compound 7]	–
217 ± 4.8	C=CC(=O)Nc1cc(-c2cc(-c3cc4c([nH]3)CCNC4=O)ccn2)cc(C(F)(F)F)c1 [compound 8]	–
52.1 ± 0.3	C=CC(=O)Nc1cc(-c2cc(-c3cc4c([nH]3)CCNC4=O)ccn2)ccc1C(F)(F)F [compound 9]	–
212 ± 8.3	C=CC(=O)Nc1cc(OC(F)(F)F)cc(-c2cc(-c3cc4c([nH]3)CCNC4=O)ccn2)c1 [compound 10]	–
121 ± 26.1	C=CC(=O)Nc1cc(-c2cc(-c3cc4c([nH]3)CCNC4=O)ccn2)cc(N(C)C)c1 [compound 12]	–
113 ± 3.5	C=CC(=O)Nc1cc(-c2cc(-c3cc4c([nH]3)CCNC4=O)ccn2)ccc1N(C)C [compound 13]	–
